Literature values, collected in PMC2981068 (Journal of medicinal chemistry, 2010).
Marks after values point to notes of the source that are not given here.

Columns and labels:
[1] = tested on: E. faecalis (VanB, strain ATCC 51299), vancomycin-resistant and teicoplanin-sensitive; conditions: footnotes d, ref [7]–[8], [4]
[2] = tested on: E. faecalis (VanA, strain BM4166), vancomycin- and teicoplanin-resistant; conditions: footnotes d, ref [7]–[8], [4]
[3] = computationally determined, relative to 2 with ligand 3; ref [11]
[4] = tested on: Staphylococcus aureus (strain ATCC 25923), vancomycin-sensitive; conditions: reference not given, ref [1a],[6] as in b5
[5] = tested on: Enterocococci bacterial strains (VanA and VanB); conditions: resistant vs sensitive bacteria; ref [1d]

Row | Substance | MIC E. faecalis (VanB) (value in parentheses) [1] [µg/mL] | MIC E. faecalis (VanA) (value in parentheses) [2] | ΔΔGb cal, ligand 3 [3] | MIC for sensitive strain (comparator in text) [4] [µg/mL] | drop in antimicrobial activity on D-Ala to D-Lac change [5] [fold]
1 | vancomycin aglycon [Compound 2] | 80 | 640 (640) ^d, ^e μg/mL | 0.0 (0.0) ^d kcal/mol | – | –
2 | chlorobiphenyl vancomycin [Compound 8] | – | – | – | 0.03 | –
3 | Vancomycin [Compound 1] | 125 | 2000 (2000) ^e μg/mL | – | – | 1000
